Drawing on the supplement of paper PMC10307832, this text covers relative viability for six cell lines.

Assay in all cases: relative viability (nuclei count vs DMSO), 5 days (fraction); higher = more cells survive
Compound in one experiment: COc1cc2/c(=N/c3ccc(Br)cc3F)nc[nH]c2cc1OCC1CCN(C)CC1 [Vandetanib]
In a few lines:
(§1)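 MetaXpress counted nuclei in 4× images of lung cancer cell lines that had been fixed, permeabilised and Hoechst-stained in one step. Before that, cells in 1536-well plates were kept overnight at 37 °C, pinned with five √10-spaced library-drug doses on vehicle-anchored plates, and cultured 5 days without medium change. Viability takes treated-well nuclei over vehicle-well nuclei and uses the median across plates. Plates were accepted only at control CV below 25% and at least one doubling.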

Compound in experiment [1]: C1=CC=C2C(=C1)N=C(S2)C(C#N)C3=NC(=NC=C3)NCCC4=CN=CC=C4
In a few lines: as §1

Compound in a further experiment: C#Cc1cccc(Nc2ncnc3cc(OC)c(OCCCCCCC(=O)NO)cc23)c1 [CUDC-101]
In a few lines:
as §1

Compound in another experiment: COc1cc(N2CCC(N3CCN(C)CC3)CC2)ccc1Nc1ncc(Cl)c(Nc2ccccc2S(=O)(=O)C(C)C)n1 [NVP-TAE684]
In a few lines:
as §1

For the cell line LU99A, the relative viability with Vandetanib (0.02 µM) worked out at 0.839; with Vandetanib (0.06325 µM) it was 0.846; with Vandetanib (0.2 µM), 0.92; with Vandetanib (0.6325 µM) it was 0.895; in the experiment with Vandetanib (2 µM), 0.951; in experiment [1] (0.005 µM), 0.779. For the same cell line, the relative viability came out at 0.995 in experiment [1] (0.01581 µM); 0.877 in experiment [1] (0.05 µM); 1.04 in experiment [1] (0.1581 µM); 0.972 in experiment [1] (0.5 µM); 1.07 with CUDC-101 (0.01 µM); 0.877 in the experiment with CUDC-101 (0.03162 µM). The relative viability was found to be 0.808 with CUDC-101 (0.1 µM); 0.9 in the experiment with CUDC-101 (0.3162 µM); 0.58 with CUDC-101 (1 µM); 0.998 in the experiment with NVP-TAE684 (0.2 µM); 0.942 in the experiment with NVP-TAE684 (0.6325 µM); 0.616 with NVP-TAE684 (2 µM).
Take NCI-H647: the relative viability in the experiment with Vandetanib (0.02 µM) is 0.965; with Vandetanib (0.06325 µM), 0.946; in the experiment with Vandetanib (0.2 µM) it was 0.968; with Vandetanib (0.6325 µM) it was 0.933; with Vandetanib (2 µM), 0.872; in experiment [1] (0.005 µM), 0.814. For the same cell line, the relative viability in experiment [1] (0.01581 µM) amounted to 0.997; in experiment [1] (0.05 µM) it was 0.927; in experiment [1] (0.1581 µM), 1.16; in experiment [1] (0.5 µM) it was 0.893; with CUDC-101 (0.01 µM) it was 1.08; in the experiment with CUDC-101 (0.03162 µM), 0.899. In addition, the relative viability with CUDC-101 (0.1 µM) turned out to be 1.04; with CUDC-101 (0.3162 µM), 0.987; with CUDC-101 (1 µM), 0.801; with NVP-TAE684 (0.2 µM), 0.924; in the experiment with NVP-TAE684 (0.6325 µM) it was 1.01; with NVP-TAE684 (2 µM), 0.723.
In the case of LC-2-ad, the relative viability came to 1.02 in the experiment with Vandetanib (0.02 µM); 0.893 in the experiment with Vandetanib (0.06325 µM); 1.01 with Vandetanib (0.2 µM); 0.868 in the experiment with Vandetanib (0.6325 µM); 0.438 with Vandetanib (2 µM); 0.923 in experiment [1] (0.005 µM). The relative viability is 0.9 in experiment [1] (0.01581 µM); 0.999 in experiment [1] (0.05 µM); 1.11 in experiment [1] (0.1581 µM); 0.961 in experiment [1] (0.5 µM); 1.01 with CUDC-101 (0.01 µM); 0.989 with CUDC-101 (0.03162 µM). Moreover, the relative viability in the experiment with CUDC-101 (0.1 µM) is 1.03; with CUDC-101 (0.3162 µM), 0.963; in the experiment with CUDC-101 (1 µM), 0.758; in the experiment with NVP-TAE684 (0.2 µM), 0.975; with NVP-TAE684 (0.6325 µM) it was 0.848; in the experiment with NVP-TAE684 (2 µM), 0.654.
Take LK-2: the relative viability in the experiment with Vandetanib (0.02 µM) amounted to 0.97; with Vandetanib (0.06325 µM), 0.969; in the experiment with Vandetanib (0.2 µM) it was 0.966; in the experiment with Vandetanib (0.6325 µM) it was 1.06; with Vandetanib (2 µM), 0.815; in experiment [1] (0.005 µM) it was 0.753. For the same cell line, the relative viability stood at 1.11 in experiment [1] (0.01581 µM); 0.97 in experiment [1] (0.05 µM); 1.21 in experiment [1] (0.1581 µM); 1.07 in experiment [1] (0.5 µM); 1.09 with CUDC-101 (0.01 µM); 0.978 in the experiment with CUDC-101 (0.03162 µM). For the same cell line, the relative viability turned out to be 0.948 with CUDC-101 (0.1 µM); 0.885 in the experiment with CUDC-101 (0.3162 µM); 0.546 with CUDC-101 (1 µM); 1.09 in the experiment with NVP-TAE684 (0.2 µM); 0.924 with NVP-TAE684 (0.6325 µM); 0.356 with NVP-TAE684 (2 µM).
On to NCI-H520, for which the relative viability in the experiment with Vandetanib (0.02 µM) was determined as 0.995; in the experiment with Vandetanib (0.06325 µM), 0.986; in the experiment with Vandetanib (0.2 µM) it was 0.925; in the experiment with Vandetanib (0.6325 µM) it was 0.95; in the experiment with Vandetanib (2 µM), 0.938; in experiment [1] (0.005 µM), 0.847. In addition, the relative viability in experiment [1] (0.01581 µM) came out at 0.973; in experiment [1] (0.05 µM), 0.953; in experiment [1] (0.1581 µM), 0.968; in experiment [1] (0.5 µM) it was 0.96; in the experiment with CUDC-101 (0.01 µM), 0.997; in the experiment with CUDC-101 (0.03162 µM) it was 0.914. The relative viability in the experiment with CUDC-101 (0.1 µM) worked out at 0.982; in the experiment with CUDC-101 (0.3162 µM), 1.02; in the experiment with CUDC-101 (1 µM), 0.686; with NVP-TAE684 (0.2 µM), 0.969; with NVP-TAE684 (0.6325 µM), 0.986; with NVP-TAE684 (2 µM), 0.767.
Consider NCI-H1975, for which the relative viability with Vandetanib (0.02 µM) is 0.931; with Vandetanib (0.06325 µM), 0.888; with Vandetanib (0.2 µM) it was 0.871; with Vandetanib (0.6325 µM) it was 0.997; in the experiment with Vandetanib (2 µM) it was 0.805; in experiment [1] (0.005 µM), 0.858. Moreover, the relative viability in experiment [1] (0.01581 µM) came out at 0.912; in experiment [1] (0.05 µM), 1.01; in experiment [1] (0.1581 µM), 1.1; in experiment [1] (0.5 µM) it was 0.653; with CUDC-101 (0.01 µM) it was 0.996; with CUDC-101 (0.03162 µM) it was 0.917. In addition, the relative viability was found to be 0.934 with CUDC-101 (0.1 µM); 1.03 with CUDC-101 (0.3162 µM); 0.91 with CUDC-101 (1 µM); 0.974 with NVP-TAE684 (0.2 µM); 0.926 with NVP-TAE684 (0.6325 µM); 0.608 with NVP-TAE684 (2 µM).
